Experimental findings from patent US20220279826A1, “OFF-FLAVOR SUPPRESSING AGENT” (AJINOMOTO CO., INC., priority 2019, published 2022) are described below.

Each structure is given as a SMILES string.

Assay [1] in a line: Sensory evaluation of off-taste suppressing effect in 0.8 wt % potassium chloride aqueous solution (Experimental Examples 1 and 2). Here is the method: Each compound shown in the following Tables 1 to 13 was added to a 0.8 wt % potassium chloride aqueous solution at the concentration (addition concentration) shown in the following Tables 1 to 13 to prepare each evaluation sample.
Based on the following evaluation criteria, a panel of two experts determined by consensus the intensity of off-tastes (bitter taste, metallic taste, harsh taste, astringent taste) derived from potassium chloride in each evaluation sample, by reference to each potassium chloride aqueous solution adjusted to 0.8 wt %, 0.75 wt %, 0.7 wt %, or 0.65 wt %.
−: intensity of the same level as potassium chloride aqueous solution with potassium chloride concentration of not less than 0.8 wt %
+: intensity of the same level as potassium chloride aqueous solution with potassium chloride concentration of not less than 0.75 wt % and less than 0.8 wt %
++: intensity of the same level as potassium chloride aqueous solution with potassium chloride concentration of not less than 0.7 wt % and less than 0.75 wt %
+++: intensity of the same level as potassium chloride aqueous solution with potassium chloride concentration of not less than 0.65 wt % and less than 0.7 wt %
Each compound shown in the following Table 14 was added to a 0.8 wt % potassium chloride aqueous solution at the concentration (addition concentration) shown in the following Table 14 to prepare each evaluation sample.

Assay [2] is described as follows: Sensory evaluation in Japanese noodle soup base solution with potassium chloride (0.2 g) (Experimental Example 5). The note with it: for off-taste suppressing effect: Japanese noodle soup base solution, potassium chloride 0.2 g; for intensity of off-tastes (bitter taste, metallic taste, harsh taste, astringent taste) derived from potassium chloride: base solution of Table 19. Here is the method: Potassium chloride (0.2 g) was added to a commercially available Japanese noodle soup base (manufactured by Yamaki Co., Ltd.) (11.1 g), and dissolved by adding hot water (88.7 g) to prepare a base solution.
Each compound shown in the following Table 19 was added to the base solution prepared above so as to achieve the concentration (addition concentration) shown in the following Table 19 to prepare each evaluation sample.
Based on the following evaluation criteria, a panel of two experts determined by consensus the intensity of off-tastes (bitter taste, metallic taste, harsh taste, astringent taste) derived from potassium chloride in each evaluation sample, by reference to each potassium chloride aqueous solution adjusted to 0.2 wt %, 0.15 wt % or 0.1 wt %.

[3] abbreviates: 0.8 wt % potassium chloride aqueous solution, addition concentration 1000 weight ppb (125 weight ppm with respect to potassium chloride).
The mark [4] stands for this setting: in words, potassium chloride aqueous solutions, Tables 1 to 14.
The mark [5] stands for this setting: potassium chloride aqueous solutions, Tables 1 to 14.
[6] abbreviates: 0.8 wt % potassium chloride aqueous solution, addition concentration 10 weight ppb (1.25 weight ppm with respect to potassium chloride).
[7] abbreviates: 0.8 wt % potassium chloride aqueous solution, addition concentration 50 weight ppb (6.25 weight ppm with respect to potassium chloride).
[8] abbreviates: 0.8 wt % potassium chloride aqueous solution, addition concentration 100 weight ppb (12.5 weight ppm with respect to potassium chloride).
Setting [9] is: 0.8 wt % potassium chloride aqueous solution, addition concentration 1 weight ppb (0.125 weight ppm with respect to potassium chloride).
The mark [10] stands for this setting: 0.8 wt % potassium chloride aqueous solution, addition concentration 5 weight ppb (0.625 weight ppm with respect to potassium chloride).
Setting [11] is: 0.8 wt % potassium chloride aqueous solution, addition concentration 500 weight ppb (62.5 weight ppm with respect to potassium chloride).

As to `O=CO` [formic acid, reference compound], the off-taste suppressing effect result in assay [1] (setting [3]) is recorded as “− (intensity of the same level as potassium chloride aqueous solution with potassium chloride concentration of not less than 0.8 wt %)”; in assay [1] (setting [4]) it was “could not be confirmed”. Moreover, in assay [1] (setting [5]), the “intensity of off-tastes (bitter taste, metallic taste, harsh taste, astringent taste) derived from potassium chloride” value (shortened to “intensity of off-tastes”) is “did not show changes”.

As to `CCC1=C(O)C(=O)C(C)O1` (stereo not shown) [5-ethyl-4-hydroxy-2-methyl-3(2H)-furanone, reference compound], the off-taste suppressing effect result was “− (intensity of the same level as potassium chloride aqueous solution with potassium chloride concentration of not less than 0.8 wt %)” in assay [1] (setting [6]); “+ (intensity of the same level as potassium chloride aqueous solution with potassium chloride concentration of not less than 0.75 wt % and less than 0.8 wt %)” in assay [1] (setting [7]); “− (intensity of the same level as potassium chloride aqueous solution with potassium chloride concentration of not less than 0.8 wt %)” in assay [1] (setting [8]); “could be hardly confirmed” in assay [1] (setting [4]).

Consider `CCC1OC(=O)C(O)=C1C` (stereo not shown) [5-ethyl-3-hydroxy-4-methyl-2(5H)-furanone, reference compound], for which the off-taste suppressing effect entry in assay [1] (setting [9]) was “− (intensity of the same level as potassium chloride aqueous solution with potassium chloride concentration of not less than 0.8 wt %)”; in assay [1] (setting [10]) it was “+ (intensity of the same level as potassium chloride aqueous solution with potassium chloride concentration of not less than 0.75 wt % and less than 0.8 wt %)”; in assay [1] (setting [6]) it was “+ (intensity of the same level as potassium chloride aqueous solution with potassium chloride concentration of not less than 0.75 wt % and less than 0.8 wt %)”; in assay [1] (setting [7]), “− (intensity of the same level as potassium chloride aqueous solution with potassium chloride concentration of not less than 0.8 wt %)”; in assay [1] (setting [8]), “− (intensity of the same level as potassium chloride aqueous solution with potassium chloride concentration of not less than 0.8 wt %)”; in assay [1] (setting [11]) it was “− (intensity of the same level as potassium chloride aqueous solution with potassium chloride concentration of not less than 0.8 wt %)”. For the same compound, the figures for the off-taste suppressing effect entry in assay [1] (setting [3]) and in assay [1] (setting [4]) were “− (intensity of the same level as potassium chloride aqueous solution with potassium chloride concentration of not less than 0.8 wt %)” and “could be hardly confirmed”, respectively.

Take `CCCC(=O)O` [butyric acid]: the off-taste suppressing effect result in assay [1] (setting [8]) is “− (intensity of the same level as potassium chloride aqueous solution with potassium chloride concentration of not less than 0.8 wt %)”; in assay [1] (setting [11]), “+ (intensity of the same level as potassium chloride aqueous solution with potassium chloride concentration of not less than 0.75 wt % and less than 0.8 wt %)”; in assay [1] (setting [3]), “+ (intensity of the same level as potassium chloride aqueous solution with potassium chloride concentration of not less than 0.75 wt % and less than 0.8 wt %)”. For the same compound, the “intensity of off-tastes” value in assay [1] (setting [5]) is recorded as “decreased”.

Consider `CCCCC(=O)O` [pentanoic acid, reference compound], for which the off-taste suppressing effect entry is recorded as “− (intensity of the same level as potassium chloride aqueous solution with potassium chloride concentration of not less than 0.8 wt %)” in assay [1] (setting [3]) and “could not be confirmed” in assay [1] (setting [4]). Moreover, in assay [1] (setting [5]), the “intensity of off-tastes” value is “did not show changes”.

On to `CC(=O)O` [acetic acid, reference compound], for which the figures for the off-taste suppressing effect entry in assay [1] (setting [3]) and in assay [1] (setting [4]) were “− (intensity of the same level as potassium chloride aqueous solution with potassium chloride concentration of not less than 0.8 wt %)” and “could not be confirmed”, respectively. Moreover, the “intensity of off-tastes” value in assay [1] (setting [5]) is “did not show changes”.

Take `CCCCCc1ccco1` [2-pentylfuran, reference compound]: the off-taste suppressing effect result is listed as “− (intensity of the same level as potassium chloride aqueous solution with potassium chloride concentration of not less than 0.8 wt %)” in assay [1] (setting [8]) and “could not be confirmed” in assay [1] (setting [4]). The “intensity of off-tastes” value in assay [1] (setting [5]) is recorded as “did not show changes”.

For `CCc1ccco1` [2-ethylfuran, reference compound], the off-taste suppressing effect result in assay [1] (setting [8]) is recorded as “− (intensity of the same level as potassium chloride aqueous solution with potassium chloride concentration of not less than 0.8 wt %)”; in assay [1] (setting [4]) it was “could not be confirmed”. Moreover, the “intensity of off-tastes” value in assay [1] (setting [5]) is on record as “did not show changes”.

As to `CC(=O)c1cc(C)oc1C` [3-acetyl-2,5-dimethylfuran], the off-taste suppressing effect entry in assay [1] (setting [9]) was “+ (intensity of the same level as potassium chloride aqueous solution with potassium chloride concentration of not less than 0.75 wt % and less than 0.8 wt %)”; in assay [1] (setting [10]), “++ (intensity of the same level as potassium chloride aqueous solution with potassium chloride concentration of not less than 0.7 wt % and less than 0.75 wt %)”; in assay [1] (setting [6]), “+ (intensity of the same level as potassium chloride aqueous solution with potassium chloride concentration of not less than 0.75 wt % and less than 0.8 wt %)”; in assay [2] (addition concentration 5 weight ppb (2.5 weight ppm with respect to potassium chloride)) it was “+++ (intensity of the same level as potassium chloride aqueous solution with potassium chloride concentration of less than 0.1 wt %)”. Also, the “intensity of off-tastes” value in assay [1] (setting [5]) and in assay [2] was “decreased” throughout.

Consider `CCCCCC(=O)O` [hexanoic acid, reference compound], for which the off-taste suppressing effect entry in assay [1] (setting [3]) was “− (intensity of the same level as potassium chloride aqueous solution with potassium chloride concentration of not less than 0.8 wt %)”; in assay [1] (setting [4]) it was “could not be confirmed”. Also, in assay [1] (setting [5]), the “intensity of off-tastes” value is recorded as “did not show changes”.

`CC(=O)OC1=C(C)OC(C)C1=O` (stereo not shown) [4-acetoxy-2,5-dimethyl-3(2H)-furanone]: the off-taste suppressing effect result in assay [1] (setting [7]) is “+ (intensity of the same level as potassium chloride aqueous solution with potassium chloride concentration of not less than 0.75 wt % and less than 0.8 wt %)”; in assay [1] (setting [8]), “++ (intensity of the same level as potassium chloride aqueous solution with potassium chloride concentration of not less than 0.7 wt % and less than 0.75 wt %)”; in assay [1] (setting [11]), “+ (intensity of the same level as potassium chloride aqueous solution with potassium chloride concentration of not less than 0.75 wt % and less than 0.8 wt %)”; in assay [2] (addition concentration 100 weight ppb (50 weight ppm with respect to potassium chloride)), “+ (intensity of the same level as potassium chloride aqueous solution with potassium chloride concentration of not less than 0.15 wt % and less than 0.2 wt %)”. Also, the “intensity of off-tastes” value in assay [1] (setting [5]) and in assay [2] was “decreased” each time.
